A melting point compilation (Tetko et al.; mined from patent text by program, amines drawn as free bases though some values may be those of a salt)

| SMILES | melting point [°C] |
| --- | --- |
| OC(CNc1nnc2n1CCCC2)COc1cccc(CN2CCCCC2)c1 (stereo unspecified) | 141 to 142 |
| Nc1ccc(S(=O)(=O)c2cc(Br)nc(N3CCNCC3)c2)cc1 | 173 to 175 |
| CCOC(=O)c1cnc2c(cnn2CC)c1OCC | 112 to 115 |
| CC(Oc1ccc2nc(NC(=O)CCCN3CCOCC3)sc2c1)c1c(Cl)ccc(F)c1Cl (stereo unspecified) | 141 to 145 |
| CC(=O)CC(=O)C=Cc1cc(O)ccc1Br | 185 to 188 |
| COC1(OC)CCN(c2nc3c(cc2F)C=C(C(=O)O)CN3c2ccc(F)cc2F)C1 | 205 to 206 |
| CC(Cc1c[nH]c2ccccc12)(NC(=O)OC1C2CC3CC(C2)CC1C3)C(=O)O (stereo unspecified) | 210 to 215 |
| C=COCCCCOC(=O)CCCCCCCCCCC(=O)OCCCCOC=C | 42 to 43 |
| COC(C)(OC)c1ccc(C2(O)CCC(C)(C)CC2)cc1 | 88 |
| CCCCN1CCC(CCC(=O)c2cc(Cl)c(N)nc2OC)CC1 | 86 to 87 |
| Clc1ccc(C2=NNC(c3cccnc3)S2)cc1 (stereo unspecified) | 106 to 108 |
| Cc1cccc2c(C#N)csc12 | 82 to 84 |
| COC(=O)CCCCCCCCCCCCCCCO | 54.2 |
| ClC(Cl)(Cl)c1nc2ncccc2[nH]1 | 210 |
| COC(=O)CCC(=O)c1ccc(Cl)c(S(N)(=O)=O)c1 | 113 to 115 |
| COc1cc2ncc(C#N)c(Nc3ccc(C(F)(F)F)cc3)c2cc1OC | 116 to 118 |
| Cc1ccc(Cn2nc(C(=O)O)c(C)c2-c2ccc(Cl)cc2)cc1Cl | 162 |
| C#Cc1cc(C)c(C2=C(O)C3(CCN(OC)CC3)N(C)C2=O)c(C)c1 | 258 to 260 |
| C=C(CCCO)c1ccc(C(=O)OC)cc1 | 28 to 30 |
| COC(=O)CCC12CCC(=O)N1C(=O)CC2 | 110 to 112 |
| COCc1sc(C(C)(O)c2ccsc2)nc1C (stereo unspecified) | 71 to 73 |
| COc1nsc(Cl)c1Cl | 46 to 48 |
| CC(C)N1C(=O)N(c2ccc(F)cc2)CSC1=NC(C)(C)C | 109 to 110 |

| SMILES | melting point [°C] |
| --- | --- |
| ON=Cc1cc(Br)ccc1Cl | 126 to 128 |
| CC(=O)Nc1cc2c(cc1[N+](=O)[O-])OCO2 | 207 to 208 |
| COC1CCCNC(=O)C1 (stereo unspecified) | 70 to 73 |
| CCCCCCCCCC#Cc1ccnc(C(=O)O)c1 | 93 to 94 |
| Nc1ccc(Oc2ccc(Oc3ccc(Oc4ccc(Oc5ccc(N)cc5)cc4)cc3)cc2)cc1 | 170 |
| O=C(O)c1ccc2c(CCCCN3CC=C(c4ccccc4)CC3)c[nH]c2c1 | 268 |
| CCOC(=O)CCN(CCCCCCN(CCC(=O)OCC)C1CC(C)(C)NC(C)(C)C1)C1CC(C)(C)NC(C)(C)C1 | 58 to 60 |
| COC(=O)c1cc(-c2c(Br)c(C(F)(F)F)n(C)c2Br)c(F)cc1Cl | 97 |
| CCOc1cc(NCCO)c([N+](=O)[O-])cc1O | 180 |
| CC1(C)CC(=O)C1(Cl)CC(Br)(Br)Br (stereo unspecified) | 95 to 97 |
| Cc1ccnc(NC(=O)C2CC2)c1[N+](=O)[O-] | 179 |
| CCOC(=O)C(=NOCC(=O)OCC(Cl)(Cl)Cl)c1csc(N)n1 | 138 to 141 |
| C1CC2CNCCNCCNCCNCC(C1)N2 | 90 to 90.5 |
| Cn1c(C(F)(F)F)ccc(-c2cc3c(cc2F)OCC(=O)N3)c1=O | 216 to 218 |
| CC(=O)OC1CC2(C)C(CCC23OCCO3)C2CC=C3CC(O)CCC3(C)C12 (stereo unspecified) | 125 to 126 |
| COCCOc1ccc(C#CC2(O)CN3CCC2CC3)cc1Cl (stereo unspecified) | 138 to 139 |
| CCC(=O)Nc1ccc(C(=O)NCCN(CC)CC)c(OC)c1 | 137 |
| C=CCN1C2CCC1C1CCC2N1C(c1ccc(C(=O)NC2CCCCC2)cc1)c1cccc(OC)c1 (stereo unspecified) | 58 to 60 |
| O=C(NC1N=C(c2ccccc2F)c2ccccc2NC1=O)OCc1ccccc1 (racemic) | 208 |
| O=C1NCCn2c1nc1c2CCCC1 | > 250 |
| CCC[C@H]1CC[C@H]([C@H]2CC[C@H](C3=CC(=O)CCC3)CC2)CC1 | 96 |
| CC(C)C(=O)NCc1ccc(-c2csc(N=C(N)N)n2)o1 | 211 to 213 |

Now from value to compound:

| melting point [°C] | SMILES |
| --- | --- |
| 141 to 143 | FC(F)(F)Oc1ccc(Nc2cc(N3CCCC3)cc(-c3ccccc3)n2)cc1 |
| 101 to 102 | CC(C)(O)CCCCc1ccc2ccccc2c1O |
| 219 to 220 | Cn1c(=O)[nH]c2ccc(-c3cccc(Cl)c3)cc21 |
| 218 to 220 | O=C(NCC(=O)N1c2ccccc2N(Cc2ccccc2)C(=O)[C@H]2CCC[C@H]21)c1ccc(C(F)(F)F)cc1 (relative stereo) |
| 141 to 143 | CCOC(=O)C1=C2COCCN2C(C)=C(C(=O)OC)C1c1ccccc1Cl (stereo unspecified) |
| 63 to 65 | COc1ccccc1CN1CCN(CCN2CCC(O)(c3ccccc3)CC2)C(c2ccccc2)C1 (stereo unspecified) |
| 149 to 151 | CN(C(=O)CCS)c1nnc(-c2cccnc2)s1 |
| 103 to 104 | CCOC(=O)c1cnc2ccn(-c3ccncc3)n2c1=O |
| 280 to 285 | O=C1OC(P(=O)(O)C2OC(=O)c3ccccc32)c2ccccc21 (stereo unspecified) |
| 115 to 120 | COCCN1CCc2cc(OC)c(O)cc2C1C1(c2ccccc2Cl)CC1 (stereo unspecified) |
| 59 to 62 | CC(C)(C)c1ccc(/C=C/C(=O)OCc2ccccc2)cc1 |
| 120 to 125 | Cc1ccc(S(=O)(=O)N2CC(NC(=O)c3ccccc3)CC2C(=O)O)cc1 (stereo unspecified) |
| 83 to 84 | COc1ccc2cc(CCCCC(O)CCc3cccnc3)ccc2c1 (stereo unspecified) |
| 160 to 164 | CCOC(=O)c1c(O)c2cccc3c2n(c1=O)CCO3 |
| 112 to 113 | CCOP(=O)(/C=C/c1cn(-c2ccccc2)nc1OCc1ccc(OCc2nc(-c3cccc(C(=O)OC)c3)oc2C)c(OC)c1)OCC |
| 126 to 127 | O=C(c1ccc(O)cc1)c1ccc(OCCOCCO)cc1 |
| 177 to 178 | CCOP(=O)(Cc1ccc(NC(=O)CCc2sc(N)nc2-c2ccc(Cl)cc2)cc1)OCC |
| 178 to 180 | CCN(CC)c1ccc(-c2ccc3c(c2)C=C(C(=O)Nc2ccc(CN(C)C4CCOCC4)cc2)CCN3C)cc1 |
| 136 to 140 | CSc1c(C(C)C(=O)O)n(Cc2ccc(Cl)cc2)c2ccc(F)cc12 (stereo unspecified) |

| melting point [°C] | SMILES |
| --- | --- |
| 201 to 202 | Cn1ncc(/C=C/C(=O)Nc2ccc(CN)cc2)c1-c1ccc(F)cc1 |
| 169 to 171 | CCCCNC(=O)NS(=O)(=O)c1ccc(CCNC(=O)N2Cc3ccc(C)cc3C2=O)cc1 |
| 202 to 204 | Cc1ccc2c(c1)N(CC(=O)c1ccco1)C(=O)C(NC(=O)Nc1cccc(C(=O)O)c1)CN2C(=O)C(C)(C)C (stereo unspecified) |
| 131 to 133 | O=c1oc(=O)n(Cc2ccco2)c2ccccc12 |
| 76 to 77 | CS(=O)(=O)c1ccc(-c2cc(=O)n(CC3CCCC3)nc2-c2ccc(F)cc2)cc1 |
| 117 to 119 | O=C(O)c1ccc(NCCCCCCCCCCCOc2ccccc2)cc1 |
| 238 | O=C(O)c1nc(-c2ccc(Cl)cc2Cl)[nH]c1C(=O)O |
| 210 to 212 | O=C1c2ccccc2-c2c1c1ccccc1c(=O)n2CCCl |
| 176 | O=C(C=Cc1cccc(S(=O)(=O)N2CCN(c3ccccc3F)CC2)c1)NO |
| 207 to 210 | COc1ccc(CNC(=O)C(Cc2ccccc2)NC(=O)Nc2n[nH]c(=S)s2)cc1OC (stereo unspecified) |
| 162 to 164 | Cc1ccccc1C(CCC(=O)O)Oc1cc(OCc2ccsc2)ccc1-c1cc(C(=O)O)on1 (racemic) |
| 153 to 154 | N=C(Nc1ccccc1-c1ccccc1)N1CCOCC1 |
| 135 to 142 | COc1cccc(CN2CCC(NC(=O)c3cnc4c(OC)cccc4c3Nc3ccc(C(=O)NC4CCN(Cc5ccccc5)CC4)cc3)CC2)c1 |
| 277 | Cc1ccccc1Sc1c(N)cc(C(=O)O)cc1S(N)(=O)=O |
| 134 to 136 | O=C(NCCCn1ccnc1)c1ccccc1 |
| 189 | Cc1c(C#N)c(-c2ccc(C#N)cc2)c(C)n1Cc1ccc(Cl)c(CO)c1 |
| 232 to 234 | CS(=O)(=O)Nc1ccc(CCN2CCN(c3ccc(NS(C)(=O)=O)c(F)c3)CC2)cc1 |
| 187 to 190 | CCc1cccc(Cl)c1C(=O)N[C@@H](Cc1ccc(-c2c(C)n(C)c(=O)n(C)c2=O)cc1)C(=O)O |
| 122 to 123 | CCN(C)c1nc(-c2ccc(OC)cc2)nc2sc(C#N)c(C)c12 |

| melting point [°C] | SMILES |
| --- | --- |
| 142 to 143 | CCOc1nn(-c2ccc(C(F)(F)F)cn2)cc1CCCOc1cc(CC(=O)O)ccc1OC |
| 160 to 162 | COC(=O)c1[nH]c(=S)n(Nc2cccc(Cl)c2)c1C |
| > 200 | O=C(O)c1ccc(-c2cnc3c(c2)N(Cc2ccccc2)C(=O)CN3)cc1 |
| 125 to 126 | O=S(=O)(NCCCCOc1ccc(-n2ccnc2)cc1)c1cccc2nonc12 |
| 91 to 93 | CCCCCC(=O)c1cn(S(=O)(=O)c2ccc(C)cc2)c2ccccc12 |
| 174 to 175 | CSC1C(=O)Nc2c(Oc3ccc4ccccc4c3)cccc21 (stereo unspecified) |
| 125 to 126 | COC(=O)c1cccc(-c2cccc(Oc3cc(Cl)cc(Cl)c3)n2)c1 |
| 190 to 195 | Cc1n[nH]cc1-c1cccc2c1nnn2-c1ccnc(NC2CCC(C(=O)N3CCC(O)CC3)CC2)n1 (stereo unspecified) |
| 128 to 132 | Nc1ccc(Cc2ccccn2)cc1[N+](=O)[O-] |
| 100 to 102 | COc1ccc(CNc2c(C)c(C)c3oc(C)c(-c4ccc(F)cc4)c3c2C)cc1 |
| 84 | CCC1=NNC(C)=C(C(=O)OCCOC(C)C)C1c1cccc([N+](=O)[O-])c1 (stereo unspecified) |
| 167 to 169 | C=C(C)C(=O)NCCNC(=O)c1ccc2ccccc2c1O |
| 119 to 120 | CCCC(=O)Nc1ccc(-n2cc(CCCOc3c(CC(=O)O)cccc3OC)c(C(C)C)n2)nc1 |
| 238 | O=C(Nc1cccc(S(=O)(=O)NCC2CC2)c1)c1cnn2c(C(F)F)cc(-c3ccc(C(F)(F)F)cc3)nc12 |
| 190 to 192 | Cn1c(=O)ccc2c(-c3ccccc3)nccc21 |
| 173 to 174 | CC1=C(O)C(=O)c2ccccc2C1=O |
| 121 to 123 | COCCOC(=O)Nc1cccc(C)c1COc1cccn2c(CO)c(C)nc12 |
| 91 | CCC(=O)N(Cc1cccc(-c2ccccc2)c1)c1cccc(-c2nnn[nH]2)c1 |
